# Values of other authors in US20080102137A1, “Composition and method for etiological treatment and prevention of diseases and/or complications associated with chronic glucose metabolism destabilization” (priority 2006, published 2008).
# Tests used:
# [1] = patients with panic disorders
# [2] = 600 mg synthetic α-tocopherol daily for 14 days, diabetic individuals
# [3] = tested on: fat cells; details: test tube assay of fat cells
# [4] = tested on: blood platelet; details: blood platelet assay
compound,measurement,setting,value
CN(C)C(=N)N=C(N)N [Metformin],lowers fasting blood glucose levels,average,25%
same,reduces raised plasma insulin levels,cases of metabolic syndrome,≤ 30%
same,lowers postprandial blood glucose,in vivo,up to 44.5%
O[C@H]1[C@H](O)[C@@H](O)[C@H](O)[C@@H](O)[C@H]1O [inositol],frequency and severity of panic attacks,[1],reduction in the frequency and severity of panic attacks
Cc1c(C)c2c(c(C)c1O)CC[C@@](C)(CCC[C@H](C)CCC[C@H](C)CCCC(C)C)O2 [α-tocopherol],biochemical marker of oxidative stress,[2],reduction in the oxidative stress marker
methylhydroxy chalcone polymer [MHCP],increased glucose metabolism,[3],roughly 20 fold
same,formation of damaging oxygen radicals,[4],prevented the formation of damaging oxygen radicals
